This is an account of results in patent US20260235580A1, “P21-ACTIVATED KINASE 4 INHIBITION AND E-CADHERIN […] AND SCREENING METHOD THEREFOR” (priority 2023, published 2026).

Holding throughout (format): cell-based
The subject of experiment [1] is E-cadherin. The experiment in a line: MG132 treatment of PANC-1 cells stably expressing shCTRL or shPAK4, western blot for E-cadherin (normalized by Vinculin). The settings on record: specific concentrations of MG132 for 24 hours. The protocol: (§1) Experiment Method: PANC-1 cells were treated with 20 μg/mL cycloheximide (CHX), harvested at designated time points, and detected by western blot for E-cadherin, ZEB1, and Vinculin antibodies (left side of FIG. 5A). Quantitative evaluation of E-cadherin and ZEB1 protein levels was performed (normalized by Vinculin, right side of FIG. 5A). SU.86.86 and PANC-1 cells were cultured overnight in 1% P/S/10% FBS/DMEM, then converted to DMEM without Ca2+, and cultured for a specific time. E-cadherin, ZEB1, and Vinculin were detected by western blot (top side of FIG. 5B). E-cadherin and ZEB1 protein levels were quantitatively assessed (normalized by Vinculin, bottom side of FIG. 5B). PANC-1 cells stably expressing shCTRL or shPAK4 were treated with specific concentrations of MG132 for 24 hours and then detected by western blot for E-cadherin, ZEB1, and Vinculin antibodies (left side of FIG. 5C). E-cadherin and ZEB1 protein levels were quantitatively assessed (normalized by Vinculin, right side of FIG. 5C), After PANC-1 cells stably expressing shCTRL or shPAK4 were cultured in a serum-free medium for a certain period of time, activated Cdc42 and Rac1 interacting with GST-PBD-agarose were harvested from whole cell proteins. The activity of Cdc42 and Rac1 was detected by western blot (FIG. 5D). […]
A general note: Immunoblotting shows a protein as a band on a membrane.

The test system of another experiment is ZEB1. The experiment in a line: Cycloheximide treatment of PANC-1 shCTRL/shPAK4 cells, western blot for ZEB1 (normalized by Vinculin). The settings on record: 20 μg/mL cycloheximide. As to the method:
as §1

Experiment [2] deals with E-cadherin. Description: Cycloheximide treatment of PANC-1 shCTRL/shPAK4 cells, western blot for E-cadherin (normalized by Vinculin). The settings on record: 20 μg/mL cycloheximide. The protocol:
as §1

The mark [3] stands for this setting: PANC-1 PAK4 knockdown (shPAK4) cells.
Where [4] appears, read: PANC-1 shCTRL cells, harvested at designated time points.

Peptide text beside a SMILES is read from it. * marks the point of attachment. Cbz = O=C(OCc1ccccc1)*

Regarding `CC(C)C[C@@H](C=O)NC(=O)[C@H](CC(C)C)NC(=O)[C@H](CC(C)C)NC(=O)OCc1ccccc1` [MG132] (Cbz-Leu-Leu-Leu-aldehyde), the “amount of protein of E-cadherin” value in the experiment on E-cadherin [1] (setting [3]) is “such a pattern was not observed”; with E-cadherin [1] (PANC-1 shCTRL cells), “decreased in a concentration-dependent manner”.
With `C[C@@H]1C[C@@H]([C@H](O)CC2CC(=O)NC(=O)C2)C(=O)[C@@H](C)C1` [cyclohexamide, cycloheximide], in the experiment with ZEB1 (setting [3]), the ZEB1 expression result is on record as “significantly reduced”. Further, the ZEB1 production entry in the experiment on ZEB1 (setting [4]) is “inhibited”. Besides, the E-cadherin expression entry with E-cadherin [2] (setting [3]) was “remained the same”. For the same compound, the E-cadherin production result in the experiment on E-cadherin [2] (setting [4]) is on record as “inhibited”.
